Experimental findings from US9351918B2, “Polyglycerol-azelaic acid polyesters for cosmetic applications” (GIULIANI S.P.A., priority 2012, dated 2016) are described below.

Data set [1] relates to TNF-α gene expression in human keratinocytes NCTC 2544. Description: Anti-inflammatory test on NCTC2544: TNF-α gene expression by RT-PCR with LPS from E. coli. It counts as cell-based. As to conditions: 20 μM together with LPS 5 μg/ml, 24 hours. As to the method:
The anti-inflammatory effects were investigated of polyglyceryl-3 azelaiate oligomers (POLY-AZ) obtained with the method in Example 1 in an in vitro model of inflammation on human keratinocytes NCTC2544, and using lipopolysaccharide
(LPS) from E. coli to mediate inflammation or irritation. The effect of the derivative in the models used was compared with that of azelaic acid (AZ-ACID), a known anti-inflammatory agent.
(§1) The TNF-α gene expression in NCTC 2544 was evaluated using RT-PCR.
There are four phases to the gene expression analysis:
1. Treatment of cells with active compounds for 16, 24 and 48 hours; […]
(§2) The extracted and quantified total RNA was amplified using the “High Capacity cDNA Reverse Transcription Kit” (Applied Biosystems). […]
(§3) The relative quantification method was used which compares the relative concentration of the gene of interest (target) in unknown samples to a calibrator or control sample (untreated cells). […]
(§4) The data provided by the Stratagene Mx3000P tool was recorded by the MXpro v.4.01 software. […]
Following the preliminary model validation experiment described above, the TNF-α gene expression was evaluated using RT-PCR on NCTC 2544 cells, after treatments with 20 μM of polyglyceryl-3-azelaiate and 20 μM of azelaic acid together with LPS at 5 μg/ml in the culture medium to evaluate the anti-inflammatory effect of the two compounds. […]

Data set [2] has the same test system. Description: Test of irritancy potential in NCTC2544: TNF-α gene expression by RT-PCR, compared with LPS positive control. As to conditions: 20 μM, 24 hours. It counts as cell-based. The procedure:
The irritant potential of the derivative (POLY-AZ) was also determined in vitro compared with a positive control (cells treated with 5 μg/ml of lipopolysaccharide). The results were compared with those obtained using azelaic acid (AZ-ACID) in the same experimental model.
as §1
Test of Irritancy Potential in NCTC2544
When the cells (human keratinocytes NCTC 2544) reached approximately 80% confluence, they were separated with trypsin/EDTA and seeded at a density of 1×10^6 cells/ml in a 12-well plate and then incubated at 37° C., 5% CO2 (24 hours).
Day 2: 24-Hour Exposure to Substances […]
as §2, §3, §4
The TNF-α gene expression in NCTC 2544 cells was also evaluated after treatments with 20 μM of polyglyceryl-3-azelaiate and 20 μM of azelaic acid compared with cells treated with LPS (5 μg/ml) in the culture medium, in order to compare the effects of these compounds against a known irritant agent (LPS). […]

Consider `O=C(O)CCCCCCCC(=O)O` [azelaic acid, nonanedioic acid], for which the “Inhibitory effect on TNF-α gene expression (anti-inflammatory effect)” value in data set [1] is reported as “does not produce an inhibitory effect”. Besides, in data set [2], the Irritancy potential result is “neither are irritating”.
